Reference: ChEMBL document CHEMBL4420076, “Amylin and calcitonin receptor agonist” (2017)
Numbered stars: 1 amine (or outer) side, 2 acyl side, 3 side chain; on linkers, the order of the positions; unused ones are H or OH. Peptide text beside a SMILES is read from it. * marks the point of attachment. C20 diacid = O=C(O)CCCCCCCCCCCCCCCCCCC(=O)*; γGlu = O=C(O)[C@H](CCC(=O)[*:2])N[*:1]

Assays:
Calcitonin receptor [1] = biological target: T1, Calcitonin receptor (Homo sapiens, UniProt P30988); test: Agonist activity at human calcitonin receptor expressed in BHK570 cells assessed as increase in intracellular cAMP concentration incubated for 3 hrs in absence of albumin by CRE luciferase reporter gene assay; assay type: functional, cell-based
T1 sequence (P30988 whole entry): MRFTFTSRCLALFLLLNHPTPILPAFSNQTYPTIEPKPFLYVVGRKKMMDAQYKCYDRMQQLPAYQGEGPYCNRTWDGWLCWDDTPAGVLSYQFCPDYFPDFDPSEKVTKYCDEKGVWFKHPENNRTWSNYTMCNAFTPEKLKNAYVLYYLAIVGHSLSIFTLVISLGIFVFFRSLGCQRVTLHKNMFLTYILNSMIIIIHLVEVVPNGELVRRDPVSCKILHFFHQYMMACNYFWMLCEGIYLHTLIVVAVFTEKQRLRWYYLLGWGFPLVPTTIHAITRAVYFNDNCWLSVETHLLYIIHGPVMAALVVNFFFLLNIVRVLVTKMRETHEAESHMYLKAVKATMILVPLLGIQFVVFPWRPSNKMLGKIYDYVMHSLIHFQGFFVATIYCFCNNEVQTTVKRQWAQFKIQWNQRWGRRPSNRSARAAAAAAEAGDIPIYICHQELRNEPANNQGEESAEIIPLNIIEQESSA

[2] = Stability in pH 7.5 buffer assessed as lag time for fibril formation at 1 uM by Thioflavin T based fluorescence assay; assay type: physicochemical; conditions: pH 7.5, 1 µM
[3] = Stability in pH 7.5 buffer assessed as compound recovery at 1 uM by Thioflavin T based fluorescence assay; assay type: physicochemical; conditions: read-out: Drug recovery
[4] = Solubility in 100 mM glycylglycine buffer at pH 3.0 incubated for 18 hrs by UPLC analysis; assay type: physicochemical
[5] = Solubility in 100 mM glycylglycine buffer at pH 4.0 incubated for 18 hrs by UPLC analysis; assay type: physicochemical
[6] = Solubility in 100 mM bistrispropane buffer at pH 6.0 incubated for 18 hrs by UPLC analysis; assay type: physicochemical
[7] = Solubility in 100 mM glycylglycine buffer at pH 5.0 incubated for 18 hrs by UPLC analysis; assay type: physicochemical
[8] = Solubility in 100 mM bistrispropane buffer at pH 6.5 incubated for 18 hrs by UPLC analysis; assay type: physicochemical
[9] = Solubility in 100 mM bistrispropane buffer at pH 7.0 incubated for 18 hrs by UPLC analysis; assay type: physicochemical
[10] = Solubility in 100 mM bistrispropane buffer at pH 7.5 incubated for 18 hrs by UPLC analysis; assay type: physicochemical
[11] = Solubility in 100 mM bistrispropane buffer at pH 8.0 incubated for 18 hrs by UPLC analysis; assay type: physicochemical
[12] = biological target: T2, Amylin receptor AMY3; CALCR/RAMP3 (Homo sapiens, UniProt O60896+P30988); test: Displacement of [125I]-labeled rat amylin from human amylin receptor expressed in BHK tkts13 whole cells co-expressing RAMP3 incubated for 60 mins by scintillation proximity assay; assay type: cell-based
T2 sequence (P30988 whole entry): T1 sequence (P30988 whole entry)
T2 sequence (O60896 whole entry): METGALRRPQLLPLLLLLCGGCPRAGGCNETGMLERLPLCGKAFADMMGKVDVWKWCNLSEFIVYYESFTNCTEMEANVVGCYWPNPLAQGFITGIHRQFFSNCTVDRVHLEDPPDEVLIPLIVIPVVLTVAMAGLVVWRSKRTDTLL

[13] = biological target: T2, Amylin receptor AMY3; CALCR/RAMP3; test: Agonist activity at human amylin receptor expressed in BHK570 cells co-expressing RAMP3 assessed as increase in intracellular cAMP concentration incubated for 3 hrs in absence of albumin by CRE luciferase reporter gene assay; assay type: functional, cell-based
Calcitonin receptor [14] = biological target: T1, Calcitonin receptor; test: Agonist activity at human calcitonin receptor expressed in BHK570 cells assessed as increase in intracellular cAMP concentration incubated for 3 hrs in presence of 10% FBS by CRE luciferase reporter gene assay; assay type: functional, cell-based
[15] = biological target: T2, Amylin receptor AMY3; CALCR/RAMP3; test: Agonist activity at human amylin receptor expressed in BHK570 cells co-expressing RAMP3 assessed as increase in intracellular cAMP concentration incubated for 3 hrs in presence of 10% FBS by CRE luciferase reporter gene assay; assay type: functional, cell-based

| SMILES | EC50 (Calcitonin receptor [1]) [nM] | Time [2] [h] | remaining at 1 µM [3] [%] | solubility at 18 h [4] [µM] | solubility at 18 h [5] [µM] | solubility at 18 h [6] [µM] | solubility at 18 h [7] [µM] | solubility at 18 h [8] [µM] | solubility at 18 h [9] [µM] | solubility at 18 h [10] [µM] | solubility at 18 h [11] [µM] | IC50 [12] [nM] | EC50 [13] [nM] | EC50 (Calcitonin receptor [14]) [nM] | EC50 [15] [nM] |
| --- | --- | --- | --- | --- | --- | --- | --- | --- | --- | --- | --- | --- | --- | --- | --- |
| CC(C)C[C@H](NC(=O)[C@H](CO)NC(=O)CNC(=O)[C@H](CO)NC(=O)CNC(=O)[C@@H](NC(=O)[C@H](CCC(=O)O)NC(=O)[C@@H](NC(=O)[C@H](CCCNC(=N)N)NC(=O)[C@@H]1CCCN1C(=O)[C@H](CC(C)C)NC(=O)[C@@H](NC(=O)[C@H](C)NC(=O)[C@H](CC(C)C)NC(=O)[C@H](CCC(=O)O)NC(=O)[C@H](Cc1cnc[nH]1)NC(=O)[C@H](CC(C)C)NC(=O)[C@H](CCC(=O)O)NC(=O)[C@H](C)NC(=O)[C@H](CO)NC(=O)[C@H](CC(C)C)NC(=O)[C@H](CCCNC(=N)N)NC(=O)CNC(=O)[C@H](CC(C)C)NC(=O)[C@H](C)NC(=O)[C@H](C)NC(=O)[C@@H](NC(=O)[C@H](CO)NC(=O)[C@H](CC(C)C)NC(=O)[C@H](CCC(=O)O)NC(=O)[C@H](CO)NC(=O)[C@H](C)NC(=O)CC[C@H](NC(=O)CCCCCCCCCCCCCCCCCCC(=O)O)C(=O)O)[C@@H](C)O)[C@@H](C)O)[C@@H](C)O)[C@@H](C)O)C(N)=O ({C20 diacid-γGlu}-ASELSTAALGRLSAELHELATLPRTETGSGSL-NH2) | 0.031 | > 45 | 100 | ≥ 200 | ≥ 200 | ≥ 200 | ≥ 200 | ≥ 200 | ≥ 200 | ≥ 200 | ≥ 200 | 3.05 | – | – | – |
| CC(C)C[C@H](NC(=O)[C@H](C)NC(=O)[C@H](C)NC(=O)[C@@H](NC(=O)[C@H](CO)NC(=O)[C@H](CC(C)C)NC(=O)[C@H](CCC(=O)O)NC(=O)[C@H](CO)NC(=O)[C@H](C)NC(=O)CC[C@H](NC(=O)CCCCCCCCCCCCCCCCCCC(=O)O)C(=O)O)[C@@H](C)O)C(=O)NCC(=O)N[C@@H](CCCNC(=N)N)C(=O)N[C@@H](CC(C)C)C(=O)N[C@@H](CO)C(=O)N[C@@H](C)C(=O)N[C@@H](CCC(=O)O)C(=O)N[C@@H](CC(C)C)C(=O)N[C@@H](Cc1cnc[nH]1)C(=O)N[C@@H](CCC(=O)O)C(=O)N[C@@H](CC(C)C)C(=O)N[C@@H](C)C(=O)N[C@H](C(=O)N[C@@H](CC(C)C)C(=O)N1CCC[C@H]1C(=O)N[C@@H](CCCNC(=N)N)C(=O)N[C@H](C(=O)N[C@@H](CCC(=O)O)C(=O)N[C@H](C(=O)NCC(=O)N[C@@H](CO)C(=O)NCC(=O)N[C@@H](CO)C(=O)N[C@@H](CO)C(N)=O)[C@@H](C)O)[C@@H](C)O)[C@@H](C)O ({C20 diacid-γGlu}-ASELSTAALGRLSAELHELATLPRTETGSGSS-NH2) | 0.038 | > 45 | 100 | ≥ 200 | ≥ 200 | ≥ 200 | ≥ 200 | ≥ 200 | ≥ 200 | ≥ 200 | ≥ 200 | 4.07 | 0.063 | 0.154 | – |
| CC(C)C[C@H](NC(=O)[C@H](CCCNC(=N)N)NC(=O)CNC(=O)[C@H](CC(C)C)NC(=O)[C@@H](NC(=O)[C@H](C)NC(=O)[C@@H](NC(=O)[C@H](CO)NC(=O)[C@H](CC(C)C)NC(=O)[C@H](CCC(N)=O)NC(=O)[C@H](CO)NC(=O)[C@H](C)NC(=O)CC[C@H](NC(=O)CCCCCCCCCCCCCCCCCCC(=O)O)C(=O)O)[C@@H](C)O)C(C)C)C(=O)N[C@@H](CO)C(=O)N[C@@H](CCC(N)=O)C(=O)N[C@@H](CCC(=O)O)C(=O)N[C@@H](CC(C)C)C(=O)N[C@@H](Cc1cnc[nH]1)C(=O)N[C@@H](CCC(=O)O)C(=O)N[C@@H](CC(C)C)C(=O)N[C@@H](CCC(N)=O)C(=O)N[C@H](C(=O)N[C@@H](Cc1ccc(O)cc1)C(=O)N1CCC[C@H]1C(=O)N[C@@H](CCCNC(=N)N)C(=O)N[C@H](C(=O)N[C@@H](CCC(=O)O)C(=O)N[C@H](C(=O)NCC(=O)N[C@@H](CO)C(=O)N[C@@H](CCC(N)=O)C(=O)N[C@H](C(=O)N[C@@H](Cc1ccc(O)cc1)C(N)=O)[C@@H](C)O)[C@@H](C)O)[C@@H](C)O)[C@@H](C)O ({C20 diacid-γGlu}-ASQLSTAVLGRLSQELHELQTYPRTETGSQTY-NH2) | – | 1 | 16 | ≥ 200 | ≥ 200 | ≥ 200 | – | ≥ 200 | ≥ 200 | ≥ 200 | ≥ 200 | – | 0.062 | 0.036 | 0.067 |
